Values quoted from earlier work as cited in patent US8529954B2, “Composition based on gamma-hydroxybutyric acid” (Debregeas et Associes Pharma, priority 2008, dated 2013).
Counter-ions that a name gives are not always drawn.

Key:
[1] = approximately

| SMILES | stability in an acidic environment | maximum peak after its administration (time of peak) ([1]; absorbed by the gastroenteric system) [min] | half life [1] [min] | time in which it is eliminated [1] [h] |
| --- | --- | --- | --- | --- |
| O=C(O)CCCO [GHB, Gamma-hydroxybutyric acid] | unstable | – | – | – |
| O=C(O)CCCO [sodium hydroxybutyrate, sodium salt of 4-hydroxybutyric acid] | – | 30 to 45 | 20 to 25 | 4 to 5 |
